In BindingDB's records for doi:10.7270/Q24X565S (The Scripps Research Institute Molecular Screening Center, 2007):
Structures can show the parent of a compound that is named as a salt.

Target: cAMP-dependent protein kinase catalytic subunit alpha (Homo sapiens, UniProt P17612)
Assay: inhibition of cAMP-dependent kinase PKA – biochemical, Kinase-Glo luminescence, Kemptide substrate, dose response (AID 548)
[1] = inactive by the depositor's call

Row | IC50 [µM] | IC50 [1] [µM] | Structure (SMILES)
1 | > 59.6 | – | Nc1[nH]nc2nc(N3CCCC3)nc(-c3ccccc3)c12
2 | 11.3 | – | c1ccc2c(-c3ccncc3)c[nH]c2c1
3 | 37.5 | – | COc1cc2c(cc1NC(=O)COC(=O)Cn1cnc3ccccc31)oc1ccccc12 [2-(1-benzimidazolyl)acetic acid [2-[(2-methoxy-3-dibenzofuranyl)amino]-2-oxoethyl] ester]
4 | > 59.6 | – | Cc1cc2ccccc2c(=O)n1CC(=O)Nc1ccc2c(c1)OCO2 [MLS000086255]
5 | – | 231 | Fc1ccccc1Cn1nnc2c(-n3ccnc3)ncnc21 [3-(2-Fluoro-benzyl)-7-imidazol-1-yl-3H-[1,2,3]triazolo[4,5-d]pyrimidine]
6 | > 19.9 | – | c1ccc(Cn2ncc3c2ncn2nc(-c4ccncc4)nc32)cc1 [MLS000078634]
7 | 24.6 | – | O=C(CSc1nnc(-c2ccncc2)[nH]1)c1ccccc1
8 | 39.5 | – | c1ccc(CCCNc2[nH]cnc3ncnc2-3)cc1
9 | > 59.6 | – | COc1ccc2c(Cl)c(C(N)=O)sc2c1 [3-Chloro-6-methoxy-benzo[b]thiophene-2-carboxylic acid amide]
10 | 59.2 | – | Clc1ccc(OCCN2CCN(c3ncnc4sccc34)CC2)cc1 [4-[4-[2-(4-chloranylphenoxy)ethyl]piperazin-1-yl]thieno[2,3-d]pyrimidine]
11 | 8.94 | – | c1nc(NC2CCCCC2)c2[nH]cnc2n1 [N-cyclohexyl-7H-purin-6-amine]
12 | > 19.9 | – | c1ccc(Cn2ncc3c2ncn2c(-c4ccncc4)nnc32)cc1 [7-Benzyl-3-pyridin-4-yl-7H-pyrazolo[4,3-e][1,2,4]triazolo[4,3-c]pyrimidine]
13 | > 59.6 | – | CCc1cc2c(O)ncnc2s1 [MLS000029626]
14 | 13.6 | – | CCC1CCCCN1c1nc(-c2ccncc2)nc2ccccc12 (centres undefined) [4-(2-ethyl-1-piperidinyl)-2-pyridin-4-ylquinazoline]
15 | 50.5 | – | Cc1cc2c(ccc3[nH]onc32)n1 [MLS000038925]
16 | 45 | – | CC(=O)n1cc(-c2ccncc2)c2ccccc21 [1-(3-pyridin-4-yl-1-indolyl)ethanone;hydrochloride]
17 | – | 70.1 | CC1(C)Cc2c(c(-c3ccco3)nc3n[nH]c(N)c23)CO1 [SMR000045457]
18 | > 59.6 | – | O=C(CCCOc1ccccc1)Nc1ccncc1 [4-Phenoxy-N-pyridin-4-yl-butyramide]
19 | 10.4 | – | Cc1ccc(S(=O)(=O)NCCSc2nnnn2-c2ccc(C(N)=O)cc2)cc1 [4-[5-[2-(tosylamino)ethylthio]tetrazol-1-yl]benzamide]
20 | > 59.6 | – | Fc1cc2nc(-c3ccncc3)[nH]c2cc1F [SMR000040673]
21 | > 59.6 | – | CCOc1ccc2nc3ccc4[nH]onc4c3c2c1 [SMR000111865]
22 | 35.6 | – | c1nc(N2CCCC2)c2[nH]cnc2n1 [6-(1-pyrrolidinyl)-7H-purine]
23 | 52.3 | – | Fc1ccccc1N1CCN(c2ncnc3n[nH]cc23)CC1 [4-[4-(2-fluorophenyl)piperazin-1-yl]-1H-pyrazolo[3,4-d]pyrimidine]
24 | > 59.6 | – | Nc1nonc1-n1nncc1-c1ccccc1 [4-(5-phenyl-1,2,3-triazol-1-yl)-1,2,5-oxadiazol-3-amine]
25 | – | 358 | NC(=O)c1sc2nc(N3CCCCC3)c3c(c2c1N)CCCC3 [1-amino-5-(1-piperidinyl)-6,7,8,9-tetrahydrothieno[2,3-c]isoquinoline-2-carboxamide]
26 | > 59.6 | – | Cc1cccc(NC(=O)CSc2n[nH]c(-c3ccncc3)n2)c1 [N-(3-methylphenyl)-2-[(5-pyridin-4-yl-1H-1,2,4-triazol-3-yl)thio]acetamide]
27 | > 59.6 | – | Cc1ccc(SCc2nc(-c3ccncc3)no2)cc1 [4-(5-{[(4-methylphenyl)thio]methyl}-1,2,4-oxadiazol-3-yl)pyridine]
28 | > 59.6 | – | CN(C(=O)COc1ccccc1)c1nnc(-c2ccncc2)s1 [MLS000075421]
29 | > 59.6 | – | Nc1c(S(=O)(=O)c2cccc(Cl)c2)c2c(n1N=CC1=CC(=O)C(=O)C=C1)Nc1ccccc1N2 [4-[[2-azanyl-3-(3-chlorophenyl)sulfonyl-4,9-dihydropyrrolo[3,2-b]quinoxalin-1-yl]iminomethyl]cyclohexa-3,5-diene-1,2-dione]
30 | > 59.6 | – | Cn1c(SCc2ccc(Br)cc2)nnc1-c1ccncc1 [4-[5-[(4-bromobenzyl)thio]-4-methyl-1,2,4-triazol-3-yl]pyridine]

Row | Structure (SMILES) | IC50 [µM] | IC50 [1] [µM]
31 | C1=C(c2c[nH]c3ccccc23)CCNC1 | > 59.6 | –
32 | Cc1c2ccncc2c(C)c2c1[nH]c1ccccc12 [5,11-dimethyl-2H-pyrido[4,3-b]carbazole] | 4.09 | –
33 | O=NCc1c[nH]c2ccccc12 [MLS000104363] | 34.4 | –
34 | CCN1CCN(Cc2nnnn2C(C)(C)C)CC1 [1-(1-tert-Butyl-1H-tetrazol-5-ylmethyl)-4-ethyl-piperazine] | > 59.6 | –
